{
  "source": "paper PMC10266789",
  "about": "(The Journal of Clinical Investigation, 2023)",
  "key": {"[1]": {"system": "Zika virus (strain DAK41525)", "settings": "Zika/human HFF"}, "[2]": {"molecular_target": "T1, recombinant human SIRT1 (Homo sapiens, UniProt Q96EB6)", "T1 construct": "purified, recombinant SIRT2^2–389, SIRT1^1–747, or SIRT3^1–400 protein (GenScript); purchased GenScript", "T1 sequence (Q96EB6 1-747)": "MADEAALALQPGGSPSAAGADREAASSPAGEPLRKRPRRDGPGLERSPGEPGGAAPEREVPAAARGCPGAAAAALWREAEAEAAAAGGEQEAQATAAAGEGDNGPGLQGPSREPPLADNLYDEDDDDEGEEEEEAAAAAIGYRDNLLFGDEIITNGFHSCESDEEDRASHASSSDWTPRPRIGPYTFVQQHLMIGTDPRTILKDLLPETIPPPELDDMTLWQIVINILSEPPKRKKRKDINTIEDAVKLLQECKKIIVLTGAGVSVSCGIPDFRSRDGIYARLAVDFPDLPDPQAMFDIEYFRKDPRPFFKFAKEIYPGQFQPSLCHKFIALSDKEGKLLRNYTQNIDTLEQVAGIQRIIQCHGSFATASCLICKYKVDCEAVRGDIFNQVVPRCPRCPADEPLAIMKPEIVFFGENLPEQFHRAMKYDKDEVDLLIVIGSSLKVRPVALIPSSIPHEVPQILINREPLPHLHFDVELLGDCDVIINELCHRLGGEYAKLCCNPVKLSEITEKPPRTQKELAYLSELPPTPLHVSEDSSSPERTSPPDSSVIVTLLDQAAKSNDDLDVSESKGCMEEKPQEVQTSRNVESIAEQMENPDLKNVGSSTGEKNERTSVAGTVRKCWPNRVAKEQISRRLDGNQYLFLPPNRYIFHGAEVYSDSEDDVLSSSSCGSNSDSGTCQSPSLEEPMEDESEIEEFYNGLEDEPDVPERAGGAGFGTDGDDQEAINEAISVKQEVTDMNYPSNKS", "experiment": "SIRT deacylase assay, deacetylation of Ac-H3K9WW peptide, mass spectrometry", "format": "biochemical", "settings": "Figure 1C; n = 3"}, "[3]": {"system": "HCMV TB40/E-mCherry-UL99eGFP", "experiment": "HCMV delayed treatment protocol, infected cell area in MRC-5", "settings": "for IC50: Human betaherpesvirus 5, MRC5, 120 h, 5 days of treatment"}, "[4]": {"experiment": "Host cell cytotoxicity, HFF", "settings": "human, HFF cells"}, "[5]": {"molecular_target": "T2, recombinant human SIRT2 (Homo sapiens, UniProt Q8IXJ6)", "T2 sequence (Q8IXJ6 39-352 limits assumed)": "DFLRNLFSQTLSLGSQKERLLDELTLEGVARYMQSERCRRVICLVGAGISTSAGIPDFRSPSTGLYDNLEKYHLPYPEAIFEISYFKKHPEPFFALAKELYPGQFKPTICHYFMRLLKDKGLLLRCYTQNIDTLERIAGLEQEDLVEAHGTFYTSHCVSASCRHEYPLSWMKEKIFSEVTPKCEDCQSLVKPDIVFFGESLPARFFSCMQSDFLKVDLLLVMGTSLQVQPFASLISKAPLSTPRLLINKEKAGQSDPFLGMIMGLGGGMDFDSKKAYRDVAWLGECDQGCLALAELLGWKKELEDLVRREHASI", "experiment": "SIRT2 thermal stability (thermal shift) assay", "format": "binding", "protocol": "SIRT2 underwent thermal denaturation with a midpoint transition temperature (Tm) of approximately 48°C.\nThermal melt data were collected using custom instrumentation (Fluorescence Innovations), with either 405 nm or 532 nm laser excitation and fluorescence lifetime emission to measure total well fluorescence and fluorescence lifetime as a function of temperature. Data were treated as previously described ([37]) to determine the midpoint transition temperature, Tm."}, "[6]": {"experiment": "Host cell cytotoxicity, Akata", "format": "cell-based", "settings": "Akata cells (Burkitt lymphoma cell line); human Akata; Epstein-Barr assay", "protocol": "The Akata Burkitt lymphoma cell line is permissive for EBV lytic reactivation through activation of the B cell receptor ([52]). As expected, 24 hours after receptor engagement with anti-IgG, 30% of Akata cells induced surface expression of the late EBV gene gp350, which serves as a proxy for cells that are replicating viral DNA and forming new virions (Figure 3A)."}, "[7]": {"system": "HCMV TB40/E", "experiment": "Mouse gelfoam-fibroblast model of HCMV infection", "format": "in vivo, CIEA NOG mice", "settings": "day 11; TCID50; FLS-359 50 mg/kg p.o. b.i.d.; valganciclovir 50 mg/kg p.o. daily; P < 0.03"}, "[8]": {"system": "Hepatitis B virus (genotype D, subtype ayw)", "experiment": "microbe, parasite or virus in culture", "settings": "Hepatocyte, read-out: IC50, Hepatitis B"}, "[9]": {"experiment": "Host cell cytotoxicity, PHH", "settings": "human"}, "[10]": {"system": "HCMV TB40/E-mCherry-UL99eGFP", "experiment": "Infectivity of HCMV progeny particles (DNase I-resistant viral DNA vs TCID50)", "format": "cell-based, human cytomegalovirus"}, "[11]": {"system": "HCMV TB40/E-mCherry-UL99eGFP", "settings": "Human betaherpesvirus 5, read-out: HCMV virus yield IC50"}, "[12]": {"system": "HCMV TB40/E-mCherry-UL99eGFP", "experiment": "HCMV virus yield at 72 hpi by TCID50 (3 IU/cell)", "format": "cell-based, human cytomegalovirus", "settings": "Figure 8C"}, "[13]": {"system": "Hepatitis B virus (genotype D, subtype ayw)", "settings": "Hepatitis B/human PHH"}, "[14]": {"system": "SARS-CoV-2 (strain USA-WA1/2020)", "settings": "SARS-CoV-2/human Calu3"}, "[15]": {"system": "Influenza A (strain A/California/07/2009)"}, "[16]": {"system": "HCMV TB40/E", "experiment": "Human lung-only mouse model of HCMV infection", "format": "in vivo, lung-only mice (NSG)", "settings": "day 17; TCID50; FLS-359 50 mg/kg p.o. b.i.d.; ganciclovir 100 mg/kg i.p. daily; P < 0.04"}},
  "note": "Like-named read-outs stand apart in the source and are kept apart here.",
  "data": [
    {"smiles": "Cc1cn(-c2ccc3c(c2)CN(c2ncc(Cc4ccc(-n5cccn5)cc4)s2)CC3)c(C)n1", "note": "[FLS-359, 7-(2,4-dimethyl-1H-imidazol-1-yl)-2-(5-{[4-(1H-pyrazol-1-yl)phenyl]methyl}-1,3-thiazol-2-yl)-1,2,3,4-tetrahydroisoquinoline]", "values": [
      {"measurement": "SI CC50/IC50", "setting": "[1]", "value": 104.0},
      {"measurement": "IC50", "setting": "[2]", "value": "> 100", "unit": "µM"},
      {"measurement": "IC50", "setting": "[3]; read-out: IC50, infected cell area, drug added at 0 hpi, 0.1 IU/cell", "value": 0.9, "unit": "µM"},
      {"measurement": "IC50", "setting": "[3]; read-out: IC50, infected cell area, drug added at 24 hpi", "value": 0.6, "unit": "µM"},
      {"measurement": "IC50", "setting": "[3]; read-out: IC50, infected cell area, drug added at 48 hpi", "value": 0.8, "unit": "µM"},
      {"measurement": "IC50", "setting": "[3]; read-out: IC50, infected cell area, drug added at 72 hpi", "value": 0.9, "unit": "µM"},
      {"measurement": "IC50", "setting": "[3]; read-out: IC50, infected cell area, drug added at 96 hpi", "value": 0.9, "unit": "µM"},
      {"measurement": "Maximum Fold-Reduction in infected cell area", "setting": "[3]; drug added at 0 hpi", "value": 11.6},
      {"measurement": "Maximum Fold-Reduction in infected cell area", "setting": "[3]; drug added at 24 hpi", "value": 33.4},
      {"measurement": "Maximum Fold-Reduction in infected cell area", "setting": "[3]; drug added at 48 hpi", "value": 21.2},
      {"measurement": "Maximum Fold-Reduction in infected cell area", "setting": "[3]; drug added at 72 hpi", "value": 17.6},
      {"measurement": "Maximum Fold-Reduction in infected cell area", "setting": "[3]; drug added at 96 hpi", "value": 21.8},
      {"measurement": "CC50", "setting": "[4]", "value": 41.6, "unit": "µM"},
      {"measurement": "increase of SIRT2 Tm", "setting": "[5]; 6.25 μM", "value": 1.4, "unit": "°C"},
      {"measurement": "increase of SIRT2 Tm", "setting": "[5]; 12.5 μM", "value": 2.0, "unit": "°C"},
      {"measurement": "CC50", "setting": "[6]", "value": "> 100", "unit": "µM"},
      {"measurement": "virus production in gelfoam implants", "setting": "[7]", "value": "significantly reduced virus production"},
      {"measurement": "IC50", "setting": "[8]", "value": 4.8, "unit": "µM"},
      {"measurement": "CC50", "setting": "[9]", "value": "> 10", "unit": "µM"},
      {"measurement": "reduction of particle/infectious unit ratio (infectivity)", "setting": "[10]; 1.0 μM, 2 hpi to 96 hpi, 1 IU/cell", "value": 14.5, "unit": "factor"},
      {"measurement": "reduced infectivity", "setting": "[10]; 2.5 or 5.0 μM, 2 hpi to 96 hpi", "value": "more than 1,690 fold"},
      {"measurement": "reduction in extracellular virus particles", "setting": "[10]; Figure 8E", "value": "approximately 70 fold"},
      {"measurement": "reduction of viral infectivity", "setting": "[10]; Figure 8E, discussion", "value": "more than 1,600 fold"},
      {"measurement": "IC50", "setting": "[11]", "value": 0.56, "unit": "µM"},
      {"measurement": "production of infectious virus", "setting": "[12]; 72 hpi, TCID50", "value": "reduced the production of infectious virus to below the limit of quantification"},
      {"measurement": "reduction in infectious virus", "setting": "[12]; 72 hours", "value": "more than 1,000 fold"},
      {"measurement": "SI CC50/IC50", "setting": "[13]", "value": ">2.1"},
      {"measurement": "SI CC50/IC50", "setting": "[14]", "value": 52.7},
      {"measurement": "SI CC50/IC50", "setting": "[15]; Influenza A/human dNHBE", "value": ">83.3"},
      {"measurement": "IC90, Influenza A (column headed IC50, footnote C: IC90)", "setting": "[15]; human dNHBE", "value": "1.2^C μM"},
      {"measurement": "production of infectious HCMV progeny in human lung implants", "setting": "[16]", "value": "significantly reduced the production of infectious HCMV progeny"}
    ]}
  ]
}
